Experimental data published in ChEMBL document CHEMBL6134896, “Recent Advances in Augmenting the Therapeutic Efficacy of Peptide-Drug Conjugates” (2025).

Tests used:
OVCAR-3 = assay: Growth inhibition of human OVCAR-3 cells incubated for 3 days by CellTiter-Glo luminescent assay; format: functional; conditions: OVCAR-3, 72 h, time 3 day
SK-OV-3 = assay: Growth inhibition of human SK-OV-3 cells incubated for 3 days by CellTiter-Glo luminescent assay; format: functional; conditions: SK-OV-3, 72 h, time 3 day

GI50 (OVCAR-3): 4 nM
GI50 (SK-OV-3): 453 nM
Compound: CC[C@H](C)[C@@H]([C@@H](CC(=O)N1CCC[C@H]1[C@H](OC)[C@@H](C)CC(=O)N[C@H](C)[C@@H](C)c1ccccc1)OC)N(C)C(=O)[C@@H](NC(=O)[C@H](C(C)C)N(C)C(=O)OCc1ccc(NC(=O)[C@H](CCCNC(N)=O)NC(=O)[C@@H](NC(=O)CCCCCN2C(=O)CC(SCC[C@@H](NC(=O)[C@H](Cc3ccc(O)cc3)NC(=O)[C@H](CO)NC(=O)[C@H](Cc3c[nH]c4ccccc34)NC(=O)[C@H](Cc3cnc[nH]3)NC(=O)[C@@H]3CCC(=O)N3)C(=O)N[C@@H](CC(C)C)C(=O)N[C@@H](CCCNC(=N)N)C(=O)N3CCC[C@H]3C(=O)NCC(N)=O)C2=O)C(C)C)cc1)C(C)C (some centres not stated)
